Laboratory results published in EP0073276A1, “A method of increasing the feed efficiency of animals, and compositions for use in such a method” (RORER INTERNATIONAL (OVERSEAS) INC., priority 1981, dated 1983).

How the values were obtained:
Type in all cases: in vivo
[1] = system: Swiss-Webster male mice or Sprague-Dawley male rats; assay: Charcoal motility (intestinal transit of a charcoal suspension); settings: oral dose 4 mg/kg, 30 minutes before charcoal; sacrificed 30 minutes after charcoal; species (mice or rats) not given
Method: A charcoal suspension (10 cm /kg of a 10% suspension of activated charcoal, U.S.P. in 0.5% methylcellulose) is given orally either to groups of 10 Swiss-Webster male mice (18-22 g, Taconic Farms) or groups of 5 Sprague-Dawley male rats (120-140 g, Charles River Breeding Labs., Inc.) 30 minutes after an oral dose of drug or control. The animals are sacrificied 30 minutes after receiving the charcoal and the intestines are carefully removed without stretching and placed lengthwise on moist paper. The length of the intestine (pyloric sphincter to caecum) and the distance travelled by the charcoal as a fraction of that length are evaluated for each animal and group means are compared and expressed as percentage inhibition; [formula] For estimation of the duration of inhibition, the interval between dosing with drug and the administration of charcoal is varied from 30 minutes to 6 hours.

Male Sprague-Dawley rats = assay: Gastric emptying test (Amberlite pellet retention in the stomach); settings: Rattus norvegicus, 30 minutes before 30 pellets, pellets counted four hours later; for inhibition at 0.25 mg/kg: oral dose 0.25 mg/kg; for inhibition at 10 mg/kg: oral dose 10 mg/kg; for inhibition at 0.5 mg/kg: oral dose 0.5 mg/kg
Method: The gastric emptying test is performed essentially as described by Brodie in Gastroenterology 50, 45-50 (1966). Male Sprague-Dawley rats (groups of five) are dosed orally with the test compounds or controls 30 minutes before the oral administration of 30 Amerlite pellets (Rohm & Haas Amberlite IRA-93, 1 mm diameter) suspended in 1 cm3 distilled water. The animals are killed with pentobarbital four hours after the pellets are given; the stomachs are removed and the number of pellets remaining in the stomach counted. The control group is compared to the drug treated group using the following formula: %retention = [(mean drug- treated) - (mean control) / 30-(mean control)] X 100.

poultry = assay: Feed efficiency studies on poultry under strict laboratory conditions; settings: disease and parasite-free environment, relative to control animals
Text: Studies on poultry conducted under strict laboratory conditions, that is, in a disease and parasitt -free environment, indicate that the administration of feed efficiency agents, such as the amidinoureas defined in formulae I-VI and in particular 1-(2,6-dimethylphenyl)-3-methylamidinourea, results in an increase in the feed conversion ratio and weight gain of the treated animal relative to that of the control animals. The % improvement in the feed conversion ratio in the treated animals as compared with the controls is expressed by: • Body Weight Gain of Body Weight Gain of [formula]

## Cc1cccc(Br)c1NC(=O)NC(=N)N [R'=Br, R"=CH3, Rm=H, R6=H, R1=H]
[1]
  inhibition at 4 mg/kg: 89%

## Cc1cccc(C)c1NC(=O)NC(=N)N [R'=CH3, R"=CH3, Rm=H, R6=H, R1=H]
Male Sprague-Dawley rats
  inhibition at 0.25 mg/kg: 55%

## Cc1ccc(NC(=O)NC(=N)N)c(Cl)c1 [R'=Cl, R"=H, Rm=4-CH3, R6=H, R1=H]
Male Sprague-Dawley rats
  inhibition at 10 mg/kg: 40%

## N=C(N)NC(=O)Nc1ccc(Cl)c(Cl)c1 [R'=H, R"=H, Rm=3-Cl 4-Cl, R6=H, R1=H]
Male Sprague-Dawley rats
  inhibition at 10 mg/kg: 74%

## CCc1cccc(CC)c1N(C)C(=O)NC(=N)N [R'=ET, R"=ET, Rm=H, R6=CH3, R1=H]
[1]
  inhibition at 4 mg/kg: 12%

## CCc1cccc(CC)c1NC(=O)NC(=N)N [R'=ET, R"=ET, Rm=H, R6=H, R1=H]
Male Sprague-Dawley rats; oral dose 2.5 mg/kg
  inhibition at 2.5 mg/kg: 83%

## CCc1cccc(C)c1NC(=O)NC(=N)N [R'=ET, R"=CH3, Rm=H, R6=H, R1=H]
Male Sprague-Dawley rats
  inhibition at 0.5 mg/kg: 30%

## CNC(=N)NC(=O)Nc1c(C)cccc1C [1-(2,6-dimethylphenyl)-3-methylamidinourea]
poultry
  feed conversion ratio: increase
  weight gain: increase

## Cc1cc(C)c(NC(=O)NC(=N)N)c(C)c1 [R'=CH3, R"=CH3, Rm=4-CH3, R6=H, R1=H]
Male Sprague-Dawley rats
  inhibition at 10 mg/kg: 45%

## CNC(=N)NC(=O)Nc1c(C)ccc(Br)c1C [R'=CH3, R"=CH3, Rm=3Br, R6=H, R1=CH3]
[1]
  inhibition at 4 mg/kg: 22%

## CNC(=N)NC(=O)Nc1ccccc1C [R'=CH3, R"=H, Rm=H, R6=H, R1=CH3]
[1]
  inhibition at 4 mg/kg: 11%

## CCCCN(C(=O)NC(=N)N)c1c(C)cccc1C [R'=CH3, R"=CH3, Rm=H, R6=n-Bu, R1=H]
[1]
  inhibition at 4 mg/kg: 72%

## Cc1cc(Cl)ccc1NC(=O)NC(=N)N [R'=CH3, R"=H, Rm=4-Cl, R6=H, R1=H]
Male Sprague-Dawley rats
  inhibition at 10 mg/kg: 28%

## Cc1ccccc1NC(=O)NC(=N)N [R'=CH3, R"=H, Rm=H, R6=H, R1=H]
Male Sprague-Dawley rats
  inhibition at 10 mg/kg: 54%

## Cc1cccc([N+](=O)[O-])c1NC(=O)NC(=N)N [R'=CH3, R"=NO2, Rm=H, R6=H, R1=H]
[1]
  inhibition at 4 mg/kg: 82%

## CCCNC(=N)NC(=O)Nc1c(C)cc(C)cc1C [R'=CH3, R"=CH3, Rm=4-CH3, R6=H, R1=n-Pr]
[1]
  inhibition at 4 mg/kg: 15%

## N=C(N)NC(=O)Nc1ccc([N+](=O)[O-])cc1 [R'=H, R"=H, Rm=4NO2, R6=H, R1=H]
Male Sprague-Dawley rats
  inhibition at 10 mg/kg: 59%

## COc1cccc(C)c1NC(=O)NC(=N)N [R'=OCH3, R"=CH3, Rm=H, R6=H, R1=H]
Male Sprague-Dawley rats
  inhibition at 0.5 mg/kg: 70%

## Cc1cccc(Cl)c1N(C)C(=O)NC(=N)N [R'=Cl, R"=CH3, Rm=H, R6=CH3, R1=H]
[1]
  inhibition at 4 mg/kg: 82%

## N=C(N)NC(=O)Nc1c(Br)cccc1Br [R'=Br, R"=Br, Rm=H, R6=H, R1=H]
[1]
  inhibition at 4 mg/kg: 91%

## N=C(N)NC(=O)Nc1c(F)cccc1Cl [R'=Cl, R"=F, Rm=H, R6=H, R1=H]
Male Sprague-Dawley rats
  inhibition at 0.25 mg/kg: 60%

## N=C(N)NC(=O)Nc1c(Cl)cccc1Cl [R'=Cl, R"=Cl, Rm=H, R6=H, R1=H]
Male Sprague-Dawley rats; oral dose 0.125 mg/kg
  inhibition at 0.125 mg/kg: 54%

## Cc1cccc(C)c1N(C)C(=O)NC(=N)N [R'=CH3, R"=CH3, Rm=H, R6=CH3, R1=H]
Male Sprague-Dawley rats; oral dose 2 mg/kg
  inhibition at 2 mg/kg: 55%

## CCNC(=N)NC(=O)Nc1ccc(N)cc1 [R'=H, R"=H, Rm=4-NH2, R6=H, R1=ET]
[1]
  inhibition at 4 mg/kg: 20%

## N=C(N)NC(=O)Nc1c(Cl)cc(Br)cc1Cl [R'=Cl, R"=Cl, Rm=4Br, R6=H, R1=H]
Male Sprague-Dawley rats; oral dose 40 mg/kg
  inhibition at 40 mg/kg: 54%

## N=C(N)NC(=O)Nc1ccc(Cl)cc1Cl [R'=Cl, R"=H, Rm=4-Cl, R6=H, R1=H]
Male Sprague-Dawley rats
  inhibition at 10 mg/kg: 85%

## Cc1cccc(Cl)c1NC(=O)NC(=N)N [R'=Cl, R"=CH3, Rm=H, R6=H, R1=H]
Male Sprague-Dawley rats
  inhibition at 0.25 mg/kg: 43%
